The values below come from patent US8138168B1 (Takeda Pharmaceutical Company Limited, priority 2007, dated 2012).

SMILES strings stand for the structures.

One test addresses T1, Recombinant human renin (Homo sapiens, UniProt P00797).
T1 construct: isolate the active form (residues 67-406); made in house; host or cells: FreeStyle 293-F cells (transient expression of pcDNA3.1(+)/hREN)
T1 sequence (P00797 67-406): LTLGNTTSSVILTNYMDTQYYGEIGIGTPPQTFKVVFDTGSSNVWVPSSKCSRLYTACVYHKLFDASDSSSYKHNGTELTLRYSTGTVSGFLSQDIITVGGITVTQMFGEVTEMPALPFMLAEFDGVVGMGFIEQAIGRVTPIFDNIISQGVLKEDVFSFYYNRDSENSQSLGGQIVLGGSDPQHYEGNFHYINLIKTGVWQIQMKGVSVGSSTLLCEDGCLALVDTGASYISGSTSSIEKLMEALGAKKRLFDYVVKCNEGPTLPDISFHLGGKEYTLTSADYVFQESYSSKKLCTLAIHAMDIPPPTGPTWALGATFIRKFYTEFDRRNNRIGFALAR
As to the kind of experiment: In vitro enzymatic activity assay of renin inhibitors (fluorogenic peptide substrate). In kind it is biochemical.
Details: not given
A digest of the protocol:
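Enzyme: recombinant human renin, 3 nM final, 10 min compound pre-incubation at 37 °C; buffer 50 mM Hepes pH 7.4 with 0.1 mg/mL BSA or extra 2% BSA; 5% DMSO.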
What is called IC50 is the concentration that gives 50% inhibition. On to `COCCCn1c([C@@H]2CCCN(C(=O)[C@@H]3CN(C(=O)Oc4ccc(Cl)cc4)C[C@H]3N)C2)nc2ccccc21` [Compound 407, (3S,4R)-4-chlorophenyl 3-amino-4-((R)-3-(1-(3-methoxypropyl)-1H-benzo[d]imidazol-2-yl)piperidine-1-carbonyl)pyrrolidine-1-carboxylate], for which the IC50 was greater than 1 µM. `COCCCn1c([C@@H]2CCCN(C(=O)[C@@H]3CN(C(=O)Oc4cccc(C(F)(F)F)c4)C[C@H]3N)C2)nc2ccccc21` [Compound 408, (3S,4R)-3-(trifluoromethyl)phenyl 3-amino-4-((R)-3-(1-(3-methoxypropyl)-1H-benzo[d]imidazol-2-yl)piperidine-1-carbonyl)pyrrolidine-1-carboxylate]: the IC50 was greater than 1 µM.

Staying with this test, now noted: read-out: IC50 of Exemplified Compounds Against Renin.
With `COCCCn1c([C@@H]2CCCN(C(=O)[C@@H]3CN(C(=O)Nc4ccccc4OC)C[C@H]3N)C2)nc2ccccc21` [Compound 400, (3S,4R)-3-amino-N-(2-methoxyphenyl)-4-((R)-3-(1-(3-methoxypropyl)-1H-benzo[d]imidazol-2-yl)piperidine-1-carbonyl)pyrrolidine-1-carboxamide], the IC50 was greater than 1 µM. Regarding `COCCCn1c([C@@H]2CCCN(C(=O)[C@@H]3CN(S(=O)(=O)c4cc(Br)ccc4OC)C[C@H]3N)C2)nc2ccccc21` [Compound 401, ((3R,4S)-4-amino-1-(5-bromo-2-methoxyphenylsulfonyl)pyrrolidin-3-yl)((R)-3-(1-(3-methoxypropyl)-1H-benzo[d]imidazol-2-yl)piperidin-l-yl)methanone], the IC50 was greater than 1 µM. On to `COCCCn1c([C@@H]2CCCN(C(=O)[C@@H]3CN(S(=O)(=O)c4ccccc4C(F)(F)F)C[C@H]3N)C2)nc2ccccc21` [Compound 402, ((3R,4S)-4-amino-1-(2-(trifluoromethyl)phenylsulfonyl)pyrrolidin-3-yl)((R)-3-(1-(3-methoxypropyl)-1H-benzo[d]imidazol-2-yl)piperidin-1-yl)methanone], for which the IC50 is greater than 1 µM. For `COCCCn1c([C@@H]2CCCN(C(=O)[C@@H]3CN(S(=O)(=O)c4cc(C)ccc4C#N)C[C@H]3N)C2)nc2ccccc21` [Compound 403, 2-((3S,4R)-3-amino-4-((R)-3-(1-(3-methoxypropyl)-1H-benzo[d]imidazol-2-yl)piperidine-1-carbonyl)pyrrolidin-1-ylsulfonyl)-4-methylbenzonitrile], the IC50 was greater than 1 µM. For `COCCCn1c([C@@H]2CCCN(C(=O)[C@@H]3CN(C(=O)Nc4ccccc4)C[C@H]3N)C2)nc2ccccc21` [Compound 404, (3S,4R)-3-amino-4-((R)-3-(1-(3-methoxypropyl)-1H-benzo[d]imidazol-2-yl)piperidine-1-carbonyl)-N-phenylpyrrolidine-1-carboxamide], the IC50 is greater than 1 µM.

`COCCCn1c([C@@H]2CCCN(C(=O)[C@@H]3CN(C(=O)C4CCCCC4)C[C@H]3N)C2)nc2ccccc21` [Compound 405, ((3R,4S)-4-amino-1-(cyclohexanecarbonyl)pyrrolidin-3-yl)((R)-3-(1-(3-methoxypropyl)-1H-benzo[d]imidazol-2-yl)piperidin-1-yl)methanone]: the IC50 was greater than 1 µM. For `COCCCn1c([C@@H]2CCCN(C(=O)[C@@H]3CN(C(=O)c4cc5ccccc5o4)C[C@H]3N)C2)nc2ccccc21` [Compound 406, ((3R,4S)-4-amino-1-(benzofuran-2-carbonyl)pyrrolidin-3-yl)((R)-3-(1-(3-methoxypropyl)-1H-benzo[d]imidazol-2-yl)piperidin-1-yl)methanone], the IC50 is greater than 1 µM. On to `COCCCn1c([C@@H]2CCCN(C(=O)[C@@H]3CN(S(=O)(=O)c4cccc(-c5noc(C)n5)c4)C[C@H]3N)C2)nc2ccccc21` [Compound 409, ((3R,4S)-4-amino-1-(3-(5-methyl-1,2,4-oxadiazol-3-yl)phenylsulfonyl)pyrrolidin-3-yl)((R)-3-(1-(3-methoxypropyl)-1H-benzo[d]imidazol-2-yl)piperidin-1-yl)methanone], for which the IC50 was greater than 1 µM.

Take `COCCCn1c([C@@H]2CCCN(C(=O)[C@@H]3CN(S(=O)(=O)c4cc(C)ccc4OC)C[C@H]3N)C2)nc2ccccc21` [Compound 410, ((3R,4S)-4-amino-1-(2-methoxy-5-methylphenylsulfonyl)pyrrolidin-3-yl)((R)-3-(1-(3-methoxypropyl)-1H-benzo[d]imidazol-2-yl)piperidin-1-yl)methanone]: the IC50 is greater than 1 µM.

With `COCCCn1c([C@@H]2CCCN(C(=O)[C@@H]3CN(S(=O)(=O)c4ccc([N+](=O)[O-])cc4OC)C[C@H]3N)C2)nc2ccccc21` [Compound 411, ((3R,4S)-4-amino-1-(2-methoxy-4-nitrophenylsulfonyl)pyrrolidin-3-yl)((R)-3-(1-(3-methoxypropyl)-1H-benzo[d]imidazol-2-yl)piperidin-1-yl)methanone], the half-maximal inhibitory concentration (IC50) was greater than 1 µM.

For `COCCCn1c([C@@H]2CCCN(C(=O)[C@@H]3CN(S(=O)(=O)c4cc(Cl)ccc4OC)C[C@H]3N)C2)nc2ccccc21` [Compound 412, ((3R,4S)-4-amino-1-(5-chloro-2-methoxyphenylsulfonyl)pyrrolidin-3-yl)((R)-3-(1-(3-methoxypropyl)-1H-benzo[d]imidazol-2-yl)piperidin-1-yl)methanone], the IC50 was greater than 1 µM. Consider `COCCCn1c([C@@H]2CCCN(C(=O)[C@@H]3CN(S(=O)(=O)c4cc(OC)ccc4OC)C[C@H]3N)C2)nc2ccccc21` [Compound 413, ((3R,4S)-4-amino-1-(2,5-dimethoxyphenylsulfonyl)pyrrolidin-3-yl)((R)-3-(1-(3-methoxypropyl)-1H-benzo[d]imidazol-2-yl)piperidin-1-yl)methanone], for which the IC50 was greater than 1 µM. For the compound `COCCCn1c([C@@H]2CCCN(C(=O)[C@@H]3CN(C(=O)c4c(Cl)cccc4Cl)C[C@H]3N)C2)nc2ccccc21` [Compound 414, ((3R,4S)-4-amino-1-(2,6-dichlorobenzoyl)pyrrolidin-3-yl)((R)-3-(1-(3-methoxypropyl)-1H-benzo[d]imidazol-2-yl)piperidin-1-yl)methanone], the IC50 is greater than 1 µM. Regarding `COCCCn1c([C@@H]2CCCN(C(=O)[C@@H]3CN(C(=O)Nc4ccc(OC)cc4)C[C@H]3N)C2)nc2ccccc21` [Compound 415, (3S,4R)-3-amino-N-(4-methoxyphenyl)-4-((R)-3-(1-(3-methoxypropyl)-1H-benzo[d]imidazol-2-yl)piperidine-1-carbonyl)pyrrolidine-1-carboxamide], the IC50 was greater than 1 µM. On the same count and under the same terms, to `COCCCn1c([C@@H]2CCCN(C(=O)[C@@H]3CN(C(=O)c4ccc(Cl)cc4)C[C@H]3N)C2)nc2ccccc21` [Compound 416, ((3R,4S)-4-amino-1-(4-chlorobenzoyl)pyrrolidin-3-yl)((R)-3-(1-(3-methoxypropyl)-1H-benzo[d]imidazol-2-yl)piperidin-1-yl)methanone] belongs greater than 1 µM. As for `COCCCn1c([C@@H]2CCCN(C(=O)[C@@H]3CN(C(=O)N4CCCC4)C[C@H]3N)C2)nc2ccccc21` [Compound 417, ((3R,4S)-4-amino-1-(pyrrolidine-1-carbonyl)pyrrolidin-3-yl)((R)-3-(1-(3-methoxypropyl)-1H-benzo[d]imidazol-2-yl)piperidin-1-yl)methanone], the IC50 was greater than 1 µM. For `CCCSc1ncccc1C(=O)N1C[C@@H](N)[C@H](C(=O)N2CCC[C@@H](c3nc4ccccc4n3CCCOC)C2)C1` [Compound 418], the IC50 is greater than 1 µM. In the case of `COCCCn1c([C@@H]2CCCN(C(=O)[C@@H]3CN(S(=O)(=O)c4cccc(OC(F)F)c4)C[C@H]3N)C2)nc2ccccc21` [Compound 419, ((3R,4S)-4-amino-1-(3-(difluoromethoxy)phenylsulfonyl)pyrrolidin-3-yl)((R)-3-(1-(3-methoxypropyl)-1H-benzo[d]imidazol-2-yl)piperidin-1-yl)methanone], the IC50 is greater than 1 µM. On the same count and under the same terms, to `COCCCn1c([C@@H]2CCCN(C(=O)[C@@H]3CN(C(=O)c4ccco4)C[C@H]3N)C2)nc2ccccc21` [Compound 420, ((3R,4S)-4-amino-1-(furan-2-carbonyl)pyrrolidin-3-yl)((R)-3-(1-(3-methoxypropyl)-1H-benzo[d]imidazol-2-yl)piperidin-1-yl)methanone] belongs greater than 1 µM; to `COCCCn1c([C@@H]2CCCN(C(=O)[C@@H]3CN(C(=O)c4cccc(OC)c4)C[C@H]3N)C2)nc2ccccc21` [Compound 421, ((3R,4S)-4-amino-1-(3-methoxybenzoyl)pyrrolidin-3-yl)((R)-3-(1-(3-methoxypropyl)-1H-benzo[d]imidazol-2-yl)piperidin-1-yl)methanone], greater than 1 µM. Still for that read-out and setting: in the case of `COCCCn1c([C@@H]2CCCN(C(=O)[C@@H]3CN(C(=O)c4ccc(C(=O)OC)cc4)C[C@H]3N)C2)nc2ccccc21` [Compound 422, methyl 4-((3S,4R)-3-amino-4-((R)-3-(1-(3-methoxypropyl)-1H-benzo[d]imidazol-2-yl)piperidine-1-carbonyl)pyrrolidine-1-carbonyl)benzoate] it was greater than 1 µM; in that of `COCCCn1c([C@@H]2CCCN(C(=O)[C@@H]3CN(C(=O)N4CCOCC4)C[C@H]3N)C2)nc2ccccc21` [Compound 423, ((3R,4S)-4-amino-1-(morpholine-4-carbonyl)pyrrolidin-3-yl)((R)-3-(1-(3-methoxypropyl)-1H-benzo[d]imidazol-2-yl)piperidin-1-yl)methanone], greater than 1 µM.
